# In patent US8796313B2, “Substituted dihydroisoindolones as allosteric modulators of glucokinase” (Janssen Pharmaceutica N.V., priority 2005, dated 2014):
# Tests used:
# [1] = target: T1, human liver Glucokinase (GK) (Homo sapiens, UniProt P35557); test: Glucokinase enzyme assay, liver GK; type: biochemical; details: for EC50: concentration that produces 50% activation above vehicle control; for activation at 50 µM: increase in GK activity above vehicle control, compound 50 μM, 12 mM glucose; for EC100%: concentration that produces 100% activation above vehicle control
# T1 construct: His6; made in house; host or cells: Escherichia coli
# T1 sequence (P35557 1-466 isoform P35557-2): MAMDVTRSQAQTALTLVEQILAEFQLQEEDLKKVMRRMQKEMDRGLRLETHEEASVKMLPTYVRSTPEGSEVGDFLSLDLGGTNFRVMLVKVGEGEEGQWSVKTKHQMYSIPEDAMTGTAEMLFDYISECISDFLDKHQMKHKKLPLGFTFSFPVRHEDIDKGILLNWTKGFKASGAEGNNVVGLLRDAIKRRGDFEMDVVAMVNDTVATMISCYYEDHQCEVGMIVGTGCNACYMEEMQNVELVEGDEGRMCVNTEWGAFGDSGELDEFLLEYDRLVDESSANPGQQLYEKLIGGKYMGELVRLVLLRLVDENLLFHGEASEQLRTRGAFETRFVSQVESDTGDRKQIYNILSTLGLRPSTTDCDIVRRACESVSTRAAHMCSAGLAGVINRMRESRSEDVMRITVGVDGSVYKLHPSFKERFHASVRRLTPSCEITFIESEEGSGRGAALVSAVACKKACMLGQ
# Description: (§1) An enzymatic Glucokinase (GK) assay using purified recombinant human liver/pancreas enzyme was used to evaluate the effects of potential small molecule modulators.
# (§2) In this assay, GK catalyzes glucose phosphorylation in the presence of ATP. The product of this reaction, glucose-6-phosphate, was then oxidized by an excess of glucose-6-phosphate dehydrogenase to produce gluconate-6-phosphate with concomitant reduction of nicotinamide adenine dinucleotide (NAD). […] Human GK (Liver/Pancreas) was expressed in Escherichia coli as a (His) 6-tagged fusion protein and was purified by metal chelate affinity chromatography. The assay was performed in a final incubation volume of 80 μl in a 96-well clear low UV absorption plates. The incubation mixture consisted of 25 mM HEPES, 2 mM MgSO4, 1 mM dithiothreotol (DTT), 1 mg/mL bovine serum albumin (BSA), 1 mM ATP, 1 mM NAD, and 12 mM glucose, 10 units per mL glucose-6-phosphate dehydrogenase, and +/−300 ng per mL GK. For determination of the affinity (Km) and Vmax, different concentrations of glucose ranging from 0.5 mM to 40 mM were used in the assay; see Grimsby, J., Sarabu, R.; Grippo, J. F.; et. al. Science 2003, 301, 370-373. Production of reduced NAD (Nicotinamide Adenine Dinucleotide) was measured as changes in absorption at 340 nm in 96-well plate reader (Envision model #2101 Multilabel Plate reader). % Activation @ 50 μM was calculated as the percentage increase in GK activity above the vehicle control with the effective concentration of the compound being 50 μM. EC50% (μM) was calculated as the effective concentration of the compound that produces 50% activation above the vehicle control, and EC100% (μM) was calculated as the effective concentration of the compound that produces 100% activation above the vehicle control.
# [2] = target: T2, human pancreas Glucokinase (GK) (Homo sapiens, UniProt P35557); test: Glucokinase enzyme assay, pancreas GK; type: biochemical
# T2 construct: His6; made in house; host or cells: Escherichia coli
# T2 sequence (P35557 1-465): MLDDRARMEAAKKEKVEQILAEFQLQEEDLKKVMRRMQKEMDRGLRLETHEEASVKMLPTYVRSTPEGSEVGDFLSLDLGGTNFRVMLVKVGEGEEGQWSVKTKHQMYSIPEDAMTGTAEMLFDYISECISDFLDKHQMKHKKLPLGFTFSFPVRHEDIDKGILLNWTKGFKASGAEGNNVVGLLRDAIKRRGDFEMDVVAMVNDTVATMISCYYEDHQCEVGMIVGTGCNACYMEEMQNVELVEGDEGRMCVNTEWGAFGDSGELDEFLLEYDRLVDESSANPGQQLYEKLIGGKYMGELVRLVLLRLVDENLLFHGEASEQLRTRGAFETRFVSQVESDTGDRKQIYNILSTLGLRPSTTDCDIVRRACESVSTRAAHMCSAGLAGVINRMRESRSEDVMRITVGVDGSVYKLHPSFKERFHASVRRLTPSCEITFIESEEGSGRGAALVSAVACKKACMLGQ
# Description: as §1
# as §2, with “Production of reduced NAD (Nicotinamide Adenine Dinucleotide) was measured as changes in absorption at 340 nm in 96-well plate reader (Envision model #2101 Multilabel Plate reader). % Activation @ 50 μM was calculated as the percentage increase in GK activity above the vehicle control with the effective concentration of the compound being 50 μM.” left out
Compound,EC50 [1] [nM],activation at 50 µM [1] [%],EC100% [1] [µM],EC50 ([2]; concentration that produces 50% activation above vehicle control) [nM],EC100% ([2]; concentration that produces 100% activation above vehicle control) [µM],"activation at 50 µM ([2]; increase in GK activity above vehicle control, compound 50 μM, 12 mM glucose) [%]"
"O=C(CCC1c2ccccc2C(=O)N1Cc1ccccc1)Nc1nccs1 (stereo not shown) [Compound 1, 3-(2-Benzyl-3-oxo-2,3-dihydro-1H-isoindol-1-yl)-N-thiazol-2-yl-propionamide]",15000,46,–,–,–,–
"COC(=O)c1ccc(NC(=O)CCC2c3ccccc3C(=O)N2Cc2ccccc2)nc1 (stereo not shown) [Compound 2, 6-[3-(2-Benzyl-3-oxo-2,3-dihydro-1H-isoindol-1-yl)-propionylamino]-nicotinic acid methyl ester]",1290,–,8.39,–,–,–
"O=C(NCCC1c2ccccc2C(=O)N1Cc1ccccc1)Nc1nccs1 (stereo not shown) [Compound 4, 1-[2-(2-Benzyl-3-oxo-2,3-dihydro-1H-isoindol-1-yl)-ethyl]-3-thiazol-2-yl-urea]",–,15,–,–,–,–
"O=C(CCC1c2ccccc2C(=O)N1Cc1ccccc1)Nc1ccc(C(=O)O)cn1 (stereo not shown) [Compound 5, 6-[3-(2-Benzyl-3-oxo-2,3-dihydro-1H-isoindol-1-yl)-propionylamino]-nicotinic acid]",1900,138,8,2900,18,306
"O=C(CCC1c2ccccc2C(=O)N1Cc1ccccc1)Nc1ccccn1 (stereo not shown) [Compound 3, 3-(2-Benzyl-3-oxo-2,3-dihydro-1H-isoindol-1-yl)-N-pyridin-2-yl-propionamide]",2520,–,8.78,–,–,–
